From ChEMBL document CHEMBL5052834, “CXCL10 Inhibitors” (2021) come the findings set out here.

Activity calls are given as the source filed them. The calls are words filed in the database; no cut-off is given here.

In test [1] the test system is Keratinocyte. As to the kind of experiment: Inhibition of CXCL10 protein secretion in poly (I:C)-stimulated human keratinocytes measured by ELISA assay. It counts as functional, cell-based.
Test [2] relates to Keratinocyte. The experiment in a line: Inhibition of CXCL10 gene expression in TNF-alpha-stimulated human keratinocytes. It counts as functional, cell-based.
In test [3] the test system is Keratinocyte. The experiment in a line: Inhibition of CXCL10 protein secretion in LPS-stimulated human keratinocytes measured by ELISA assay. In kind it is functional, cell-based.
The species entered for test [4] is Rattus norvegicus. As to the kind of experiment: Antiangiogenic activity in streptozotocin (STZ)-induced diabetes induced retinopathy model of rat assessed as decrease in retinal vascular permeability measured by Evans blue dye metho. It counts as functional, organism-based.
Test [5] has as its system Keratinocyte. As to the kind of experiment: Inhibition of CXCL10 gene expression in poly (I:C)-stimulated human keratinocytes. It counts as functional, cell-based.
For test [6], the species on record is Rattus norvegicus. The experiment in a line: Inhibition of CXCL10 gene expression in streptozotocin (STZ)-induced diabetes induced retinopathy model of rat assessed as decrease in amount of CXCL10 in retina measured by ELISA assay. In kind it is functional.
Another test concerns Mus musculus. As to the kind of experiment: In vivo inhibition of CXCL10 gene expression in experimental autoimmune uveitis (EAU) model of C57BL/6 mouse. It counts as functional, organism-based.
Test [7] deals with Keratinocyte. As to the kind of experiment: Inhibition of CXCL10 protein secretion in IFN-gamma-stimulated human keratinocytes measured by ELISA assay. In kind it is functional, cell-based.
For test [8], the system named is Keratinocyte. The experiment in a line: Inhibition of CXCL10 protein secretion in TNF-alpha-stimulated human keratinocytes measured by ELISA assay. In kind it is functional, cell-based.
Test [9] relates to Keratinocyte. As to the kind of experiment: Inhibition of CXCL10 gene expression in LPS-stimulated human keratinocytes. It counts as functional, cell-based.
The test system of test [10] is Keratinocyte. As to the kind of experiment: Inhibition of CXCL10 gene expression in IFN-gamma-stimulated human keratinocytes. In kind it is functional, cell-based.

Take `COc1c(C)cnc(CS(=O)(=O)c2nc3cc(-n4cccc4)ccc3[nH]2)c1C`: the inhibition entry with Keratinocyte [1] is “Active”. As for `COc1ccc2[nH]c([S+]([O-])Cc3ncc(C)c(OC)c3C)nc2c1` (stereo not drawn), the inhibition result in the test on Keratinocyte [2], in the test with Keratinocyte [3], in the test on Keratinocyte [1], with Keratinocyte [5], in the test listed under Rattus norvegicus [6] and with Mus musculus was “Active” throughout. The inhibition entry in the test with Keratinocyte [7] is “Active”. Also, in the test filed under Rattus norvegicus [4], the outcome was Active.

Consider `Cc1c(OCC(F)(F)F)ccnc1CC(C)(O)c1nc2cc(OC(F)F)ccc2[nH]1` (stereo not drawn), for which the inhibition entry with Keratinocyte [3] is “Active”. As to `COc1ccnc(CS(=O)(=O)c2nc3ccccc3[nH]2)c1OC`, in the test with Keratinocyte [5], the inhibition result is “Active”. Consider `COc1ccnc(CC(O)c2nc3cc(OC(F)(F)F)ccc3[nH]2)c1C` (stereo not drawn), for which the inhibition entry with Keratinocyte [2] was “Active”. `COCCCOc1ccnc(CC(=O)c2nc3cc(OC(F)(F)F)ccc3[nH]2)c1C`: the inhibition entry in the test on Keratinocyte [5] is “Active”.

As for `Cc1cnc(CC(O)c2nc3cc(OC(F)F)ccc3[nH]2)c(C)c1OCC(F)(F)F` (stereo not drawn), in the test on Keratinocyte [7], the inhibition result is “Active”. For `COc1ccnc(C[S+]([O-])c2nc3cc(-n4cccc4)ccc3[nH]2)c1C` (stereo not drawn), the inhibition result in the test on Keratinocyte [8] and in the test with Keratinocyte [1] was “Active” in each case. Turning to `COc1c(C)cnc(C[S@@+]([O-])c2nc3cc(OC(F)F)ccc3[nH]2)c1C`, the inhibition result in the test on Keratinocyte [3] was “Active”.

Turning to `COc1ccnc(CC(O)c2nc3cc(OC(F)(F)F)ccc3[nH]2)c1OC` (stereo not drawn), the inhibition entry in the test with Keratinocyte [8] is “Active”. Regarding `COc1c(C)cnc(CS(=O)(=O)c2nc3cc(OC(F)F)ccc3[nH]2)c1C`, in the test on Keratinocyte [9], the inhibition entry is “Active”.

In the case of `COc1ccc2[nH]c([S@@+]([O-])Cc3nccc(OC)c3C)nc2c1`, the inhibition entry in the test with Keratinocyte [8] and in the test with Keratinocyte [10] was “Active” each time. Turning to `COCCCOc1ccnc(C[S+]([O-])c2nc3ccccc3[nH]2)c1C` (stereo not drawn), the inhibition result in the test on Keratinocyte [8], with Keratinocyte [1] and in the test with Keratinocyte [9] was “Active” throughout. Take `COc1ccc2[nH]c(C(=O)Cc3ncc(C)c(OC)c3C)nc2c1`: in the test with Keratinocyte [5], the inhibition result was “Active”.

On to `COc1c(C)cnc(C[S@@](=O)c2nc3ccccc3[nH]2)c1C`, for which the inhibition entry in the test with Keratinocyte [8] is “Active”. Consider `COCCCOc1ccnc(C[S@+]([O-])c2nc3cc(OC(F)(F)F)ccc3[nH]2)c1C`, for which, in the test on Keratinocyte [3], the inhibition result was “Active”. For `Cc1c(OCC(F)(F)F)ccnc1CS(=O)(=O)c1nc2cc(OC(F)F)ccc2[nH]1`, the inhibition entry with Keratinocyte [9] and in the test on Keratinocyte [10] was “Active” in each case. `COc1ccnc(CS(=O)(=O)c2nc3cc(OC(F)F)ccc3[nH]2)c1OC`: the inhibition result in the test with Keratinocyte [7] was “Active”. Consider `COc1ccnc(CC(C)(O)c2nc3cc(-n4cccc4)ccc3[nH]2)c1OC` (stereo not drawn), for which the inhibition entry in the test on Keratinocyte [7] is “Active”.

On to `Cc1cnc(CC(=O)c2nc3ccccc3[nH]2)c(C)c1OCC(F)(F)F`, for which, in the test on Keratinocyte [1], the inhibition entry was “Active”. `COCCCOc1ccnc(CS(=O)(=O)c2nc3ccccc3[nH]2)c1C`: the inhibition result in the test with Keratinocyte [7] was “Active”. Consider `Cc1c(OCC(F)(F)F)ccnc1C[S+]([O-])c1nc2ccccc2[nH]1` (stereo not drawn), for which the inhibition result with Keratinocyte [2], with Keratinocyte [3], with Keratinocyte [9] and in the test with Keratinocyte [10] was “Active” each time. In the case of `COc1ccc2[nH]c(S(=O)(=O)Cc3ncc(C)c(OC)c3C)nc2c1`, the inhibition entry in the test on Keratinocyte [3] is “Active”. With `COc1c(C)cnc(CC(O)c2nc3cc(-n4cccc4)ccc3[nH]2)c1C` (stereo not drawn), in the test on Keratinocyte [10], the inhibition entry is “Active”. Regarding `COc1c(C)cnc(CC(O)c2nc3ccccc3[nH]2)c1C` (stereo not drawn), the inhibition result with Keratinocyte [2] is “Active”. Consider `COc1ccc2[nH]c([S@+]([O-])Cc3ncc(C)c(OC)c3C)nc2c1`, for which the inhibition result with Keratinocyte [10] was “Active”. As to `Cc1c(OCC(F)(F)F)ccnc1CS(=O)(=O)c1nc2cc(-n3cccc3)ccc2[nH]1`, the inhibition result with Keratinocyte [2] was “Active”. In the case of `COc1ccnc(C[S+]([O-])c2nc3cc(OC(F)F)ccc3[nH]2)c1OC` (stereo not drawn), the inhibition entry in the test on Keratinocyte [2], in the test on Keratinocyte [5], in the test filed under Rattus norvegicus [6], in the test on Keratinocyte [9] and in the test on Keratinocyte [7] was “Active” each time. Moreover, the result in the test filed under Rattus norvegicus [4] was Active. On to `COc1ccnc(CC(O)c2nc3ccccc3[nH]2)c1C` (stereo not drawn), for which the inhibition entry in the test with Keratinocyte [1] and with Keratinocyte [5] was “Active” each time. As for `COc1c(C)cnc(C[S@+]([O-])c2nc3cc(OC(F)F)ccc3[nH]2)c1C`, in the test with Keratinocyte [9], the inhibition entry was “Active”. For `COc1ccnc(CC(C)(O)c2nc3cc(OC(F)(F)F)ccc3[nH]2)c1OC` (stereo not drawn), the inhibition entry with Keratinocyte [8] was “Active”. For `COc1ccc2[nH]c(S(=O)(=O)Cc3nccc(OC)c3C)nc2c1`, the inhibition result with Keratinocyte [10] was “Active”.
